# Laboratory results from PubChem BioAssay AID1949 (Southern Research Institute, 2009).
# Inconclusive results are not listed. Activity calls are given as the source filed them. How the calls were made is not given here.
# System: M. tuberculosis H37Rv growth inhibition
# Assay: Mycobacterium tuberculosis H37Rv growth inhibition, cell based, confirmatory dose response (AID 1949);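 further: bacteria grown 7 days with compound before Alamar blue readout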
row,Compound,IC50
1,O=Cc1cc(COc2ccc(F)cc2Cl)cs1,3.16 µg/mL
2,Clc1ccc(OCCCNCc2ccccc2)c2ccccc12,1.36 µg/mL
3,COc1ccc(-c2nc(-c3ccc(O)cc3O)cs2)cc1OC,0.17 µg/mL
4,COc1cccc(-n2nnnc2S(C)(=O)=O)c1,1.16 µg/mL
5,O=C(Nc1ccc(Oc2ccccc2)cc1)Nc1cccc([N+](=O)[O-])c1,1.09 µg/mL
6,CCCCC(=O)NC(=S)NNC(=O)c1ccc(C)c(Br)c1,2.79 µg/mL
7,Cc1c(C(=O)c2ccccc2)sc2nc(-c3ccccc3)nc(N)c12,7.76 µg/mL
8,COC(=O)COc1ccc(NC(=O)c2ccc(-c3ccccc3)cc2)cc1,< 0.1 µg/mL
9,CCc1nc2ccccc2n1CC(O)COc1ccc(I)cc1 (stereo not drawn),1.97 µg/mL
10,C(=NN1CCN(C2c3ccccc3-c3ccccc32)CC1)c1ccncc1,11.2 µg/mL
11,COc1ccc2c(c1)c(=O)oc1cc(OC(C)C(=O)c3ccccc3)ccc12 (stereo not drawn),2.84 µg/mL
12,CCc1cc(C(=O)OC)c(NC(=S)NCc2ccc(Cl)c(Cl)c2)s1,0.14 µg/mL
13,Cc1ccccc1OC(=O)c1sc2ccccc2c1Cl,2.05 µg/mL
14,CC1C(c2ccc(Cl)cc2)NC(c2ccc(Cl)cc2)C(C)C1(O)c1ccc(F)cc1 (stereo not drawn),> 50 µg/mL (inactive)
15,N#Cc1ccc(NC(=O)CSc2ccc(Cl)cc2)cc1,2.94 µg/mL
16,COC(=O)C1=C(C)N(c2ccc(F)c(Cl)c2)C(=O)C1,13.5 µg/mL
17,O=C(CSc1ccc([N+](=O)[O-])cn1)Nc1ccc2c(c1)OCO2,7.47 µg/mL
18,COc1ccc(CNc2ccc3c(c2)ncn3-c2ccccc2)cc1OC,8.63 µg/mL
19,CCOc1ccc(NC(=O)COc2ccc(SC)cc2)cc1,< 0.1 µg/mL
20,CSc1nc2nc3c(c(=O)n2[nH]1)CCCC3,2.96 µg/mL
21,O=C(c1cccc(Cl)c1)N1N=C(c2ccc(Cl)cc2)CC1(O)C(F)(F)F (stereo not drawn),3.82 µg/mL
22,CC(=O)NC(=S)NNC(=O)c1ccc(C(C)(C)C)cc1,0.29 µg/mL
23,Cc1ccc2c(c1)c(-c1ccccc1)c(-c1ccccc1)n2CC(O)CN1CCN(CCO)CC1 (stereo not drawn),1.84 µg/mL
24,Cc1ccc(NC(=O)c2cc([N+](=O)[O-])ccc2O)cc1,14.3 µg/mL

row,Compound,IC50
1,O=C(CNCCN1CCOCC1)Nc1sc2c(c1C(=O)Nc1ccccc1)CCC2,2.12 µg/mL
2,CSc1nc(C)cc(OCC(=O)Nc2ccc(Cl)cc2)n1,6.69 µg/mL
3,O=C(NC(Nc1cccc([N+](=O)[O-])c1)C(Cl)(Cl)Cl)c1cccc(I)c1 (stereo not drawn),11.7 µg/mL
4,COc1ccc(NC(=O)CC23CC4CC(CC(C4)C2)C3)cc1[N+](=O)[O-],3.05 µg/mL
5,C=C(C)CN1CCN(c2nc(NCc3ccco3)c3ccccc3n2)CC1,4.56 µg/mL
6,O=C1c2cccc3cccc(c23)C(=O)N1CCN1CCN(CC(O)COCc2ccc(Cl)cc2)CC1 (stereo not drawn),3.05 µg/mL
7,O=C(Oc1ccc(Cl)cc1)c1sc2ccccc2c1Cl,24.2 µg/mL
8,O=c1c2ccccc2nc(/C=C/c2ccc([N+](=O)[O-])o2)n1-c1cccc(O)c1,0.65 µg/mL
9,Cc1cccc(C(C)(C)C)c1OCCOCCn1ccnc1,3.97 µg/mL
10,Oc1ccc(CNc2ccccc2O)cc1,1.02 µg/mL
11,COC(=O)COc1cccc(NC(=O)c2cccc(C)c2)c1,2.85 µg/mL
12,COC(=O)C(C)Oc1ccc2c(=O)c(Oc3ccccc3Cl)coc2c1 (stereo not drawn),8.57 µg/mL
13,COc1cc(CNCCCO)cc(Cl)c1OCc1ccc(Cl)cc1Cl,6.25 µg/mL
14,O=C1NN=C2C1=NC1(CCCCC1)Cc1ccccc12,0.1 µg/mL
15,O=C(Nc1ccccc1N1CCCC1)c1ccc(-c2cccc(Cl)c2)o1,6.01 µg/mL
16,O=C(CN(c1ccc(Cl)c(Cl)c1)S(=O)(=O)c1ccccc1)Nc1cccc([N+](=O)[O-])c1,1.47 µg/mL
17,COc1ccccc1Nc1nc(NCc2ccccc2)c2ccccc2n1,3.21 µg/mL
18,CCOc1ccc(NC(=O)CSc2nnc(-c3ccccc3Cl)o2)cc1,3.35 µg/mL
19,O=C(Nc1nnc(C2CCCCC2)s1)c1sc2ccccc2c1Cl,0.37 µg/mL
20,Nc1nc2ccccc2n1CCOc1cccc2ccccc12,4.95 µg/mL
21,CCOC(=O)c1cc(CC)sc1NC(=O)c1cc2ccccc2oc1=O,0.38 µg/mL
22,Cc1ccc(NC(CC(=O)c2ccc([N+](=O)[O-])cc2)c2ccccc2)cc1 (stereo not drawn),49.2 µg/mL
23,CSc1ccccc1NC(=O)c1ccc(Cl)s1,5.6 µg/mL
24,COC(=O)COc1ccc(NC(=O)COc2cccc(C)c2)cc1,0.77 µg/mL

row,Compound,IC50
1,CC(C)(C)c1ccc(Cn2cnc([N+](=O)[O-])n2)cc1,< 0.1 µg/mL
2,COc1ccc2nc(C)c3cc(C)oc3c2c1,1.82 µg/mL
3,CCCCOc1ccc(S(=O)(=O)Nc2ccc(Cl)cc2)cc1,4.09 µg/mL
4,COc1ccc(-c2nc(NC(=O)c3ccccc3)n[nH]2)cc1OC,1.5 µg/mL
5,Cc1ccc(C)c(-c2nn(-c3cc(N4CCN(C)CC4)ccc3[N+](=O)[O-])c(=O)c3ccccc23)c1,1.76 µg/mL
6,CCOC(=O)COc1ccc2cc(-c3nc4ccccc4o3)c(=O)oc2c1,3.3 µg/mL
7,Cc1ccc(O)c(C2=NNC(c3ccc(Cl)cc3)C2)c1 (stereo not drawn),4.76 µg/mL
8,CC(C)COCc1ccc(O)c2ncccc12,> 50 µg/mL (inactive)
9,O=S(Cc1ccccc1)c1nc2ccccc2s1 (stereo not drawn),3.15 µg/mL
10,O=C(NC(=S)N1CCc2ccccc21)c1ccccc1,1.45 µg/mL
11,CC1CCCc2sc(NC(=S)NC(=O)c3ccccc3)c(C#N)c21 (stereo not drawn),0.94 µg/mL
12,O=C(Oc1ccccc1)c1cccc(COC(=O)c2cc3ccccc3oc2=O)c1,15.8 µg/mL
13,N#Cc1ccc(NC(=O)Nc2cccc(Cl)c2)cc1,4.6 µg/mL
14,COc1ccc2[nH]cc(CCNC(=S)Nc3ccc(Nc4ccccc4)cc3)c2c1,2.9 µg/mL
15,Cn1c(Sc2cnn(-c3ccccc3)c(=O)c2Br)nnc1-c1ccccc1,2.81 µg/mL
16,CC(C)c1ccc(NCCC(=O)c2cccs2)cc1,6.34 µg/mL
17,Cc1ccc(Cl)cc1N1CCN(CC(O)COc2ccc(Cl)cc2)CC1 (stereo not drawn),4.57 µg/mL
18,COC(=O)COc1ccc2c(=O)c(Oc3ccccc3)c(C(F)(F)F)oc2c1,6.6 µg/mL
19,Cc1cc(-c2csc(Nc3ccc(S(N)(=O)=O)cc3)n2)ccc1F,2.34 µg/mL
20,CSc1ncnc2c1ncn2CC(=O)Nc1ccc(C)c(C)c1,< 0.1 µg/mL
21,COc1ccc(C(=S)N2CC(C)OC(C)C2)c(OC)c1 (stereo not drawn),> 50 µg/mL (inactive)
22,O=C(NC(=S)Nc1ccccc1N1CCCC1)c1cccc2ccccc12,0.36 µg/mL
23,CCOC(=O)C1CCCN(c2ncnc3c2cnn3-c2ccc(Cl)cc2)C1 (stereo not drawn),4.21 µg/mL
24,CC(C)COc1ccc(CNC(=S)NCc2ccccc2)cc1,4.39 µg/mL

row,Compound,IC50
1,CCOC(=O)C1=CN(C(C)C)C=C(C(=O)OCC)C1c1cc(OC)ccc1OC,> 50 µg/mL (inactive)
2,COc1ccc(OCC(=O)Nc2cccc(Cl)c2)cc1,2.78 µg/mL
3,CC1=CC(C)(C)Nc2ccc(OC(=O)c3cccnc3)cc21,2.88 µg/mL
4,COC(=O)C(C)Oc1ccc2c(=O)c(-c3ccc(Cl)cc3)coc2c1 (stereo not drawn),4.23 µg/mL
5,C=CCN1C(=O)C(O)(CC(=O)c2ccc(C)cc2C)c2ccccc21 (stereo not drawn),14.6 µg/mL
6,CC(C)c1ccc(OCC(=O)NNC(=S)NC(=O)c2ccco2)c(Br)c1,0.25 µg/mL
7,Cc1ccc(Cl)cc1N1CCN(CC(O)COc2ccc(C(=O)c3ccccc3)cc2)CC1 (stereo not drawn),2.94 µg/mL
8,O=C(CN1CCN(CCN2C(=O)c3cccc4cccc(c34)C2=O)CC1)c1ccc(Cl)cc1,6.6 µg/mL
9,Cc1ccc(C(=O)N2CCN(c3ccc(NC(=O)COc4c(C)cc(C)cc4Cl)cc3)CC2)cc1,8.74 µg/mL
10,COc1ccc(NC(=O)c2c(NC(=O)c3ccc([N+](=O)[O-])o3)sc3c2CCC3)cc1,0.26 µg/mL
11,Cc1ccc(SCC(=O)Nc2cccc(F)c2)cc1,5.34 µg/mL
12,O=C(/C=C/c1cccs1)N1CCN(Cc2ccc3c(c2)OCO3)CC1,< 0.1 µg/mL
13,CCOc1ccc(C(=O)NC23CC4CC(CC(C4)C2)C3)cc1[N+](=O)[O-],> 50 µg/mL (inactive)
14,COC(=O)c1cccc(NC(=O)COc2ccc(C(C)(C)C)cc2)c1,> 50 µg/mL (inactive)
15,CC12CCC(C(=O)Oc3cccc4cccnc34)(CC1=O)C2(C)C (stereo not drawn),1.57 µg/mL
16,c1ccc(CNCc2cn(-c3ccccc3)nc2-c2ccncc2)cc1,16.5 µg/mL
17,O=C(Oc1cccc2cccnc12)c1cc2ccccc2oc1=O,3.06 µg/mL
18,CC(C)C1C(c2ccccc2)NC(c2ccccc2)CC1(O)c1ccc(F)cc1 (stereo not drawn),10.1 µg/mL
19,Cc1ccc(NS(=O)(=O)c2ccc(NC(=S)NC(=O)c3ccc(F)cc3)cc2)c(C)c1,8.09 µg/mL
20,Cc1ccccc1NC(=O)C(Cc1ccccc1)NC(=O)c1ccccc1 (stereo not drawn),37.5 µg/mL
21,CSc1ccc(/C=C/c2nc(-c3ccccc3O)n[nH]2)cc1,4.5 µg/mL
22,CCCc1cc2c(-c3ccccc3)cc(=O)oc2cc1OCC(=O)OC,5.24 µg/mL
23,COc1ccc(C)cc1NC(=O)c1ccc(Cc2ccc(C)cc2)o1,2.71 µg/mL
24,COc1cc(Br)cc2cc(C(=O)Nc3cccc(C(F)(F)F)c3)c(=O)oc12,0.11 µg/mL

row,Compound,IC50
1,CCCCOc1ccc(C(=O)NC23CC4CC(CC(C4)C2)C3)cc1,4.33 µg/mL
2,CCOC(=O)c1c(NC(=S)NC(C)c2ccncc2)sc2c1CCCCCC2 (stereo not drawn),32.8 µg/mL
3,CCCN(CCC)C(=S)NC(=O)c1ccc(OC)cc1,2.58 µg/mL
4,COC(=O)c1c(C)cc(=O)n2c1[nH]c1ccccc12,3.52 µg/mL
5,O=C(CC12CC3CC(CC(C3)C1)C2)Nc1ccc2ccccc2c1,< 0.1 µg/mL
6,O=C(NCCc1ccc(Cl)cc1)C12CC3CC(CC(C3)C1)C2,13.7 µg/mL
7,C=CCc1cc(Cl)ccc1OCCCNCCCC,5.34 µg/mL
8,CC(=O)NC(=S)NNC(=O)c1ccc(C)c(Br)c1,1.77 µg/mL
9,c1ccc2cc3nc4c(ccc5ccccc54)nc3cc2c1,< 0.1 µg/mL
10,O=C(Nc1nc2c(Cl)c(Cl)ccc2s1)c1ccco1,4.83 µg/mL
11,c1ccc(CCN(Cc2ccccc2)C2CCN(Cc3c[nH]c4ccccc34)CC2)cc1,2.91 µg/mL
12,O=C1C(=O)N(CCc2ccccc2)c2ccc(Cl)cc21,4.73 µg/mL
13,O=C(Nc1nc2ccccc2[nH]1)c1cccc(Cl)c1,10.4 µg/mL
14,CC(C)C(=O)N1CCN(c2ccccc2NC(=O)c2ccc([N+](=O)[O-])o2)CC1,1.95 µg/mL
15,c1ccc(CCNc2nc3ccccc3[nH]2)cc1,2.94 µg/mL
16,CCCCn1c(O)c(/C=C2\C=CC=N2)c(=O)[nH]c1=O,< 0.1 µg/mL
17,Oc1ccccc1Nc1nc(NCc2ccco2)c2ccccc2n1,5.36 µg/mL
18,NC(CC(=O)c1ccc(Cl)cc1Cl)C(Cl)(Cl)Cl (stereo not drawn),0.27 µg/mL
19,CCOc1ccc(OCc2ccc(C(=O)Nc3cccc(C)n3)o2)cc1,7.11 µg/mL
20,CC(C)CN1C(=O)c2cccc3c([N+](=O)[O-])ccc(c23)C1=O,> 50 µg/mL (inactive)
21,COc1ccc(-c2oc3ncn(CCCn4ccnc4)c(=N)c3c2-c2ccc(OC)cc2)cc1,3.79 µg/mL
22,O=C(CSc1nnc(-c2ccccc2)o1)N1CCc2ccccc2C1,9.27 µg/mL
